Experimental data published in patent publication US20240327393A1 (SIRONAX LTD., priority 2021, published 2024).

The compounds below were run on HT-1080 (ATCC, CCL-121) cells (assay: HT-1080 cell viability assay with ferroptosis inducer RSL3 (Cell Titer-Glo)). Settings: HT-1080 cells treated with RSL3; 3-fold, 10-point dilution, 1.1 μM highest concentration; Table 2; read-out: EC50 (nM), ferroptosis inhibitory activity.
Format: cell-based
In short: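 HT-1080 cells (6000 per well) were cultured overnight at 37 °C, then co-treated with RSL3 and compound in a 3-fold, 10-point series topping at 1.1 μM. Viability was read by CellTiter-Glo luminescence and normalized to untreated controls. EC50 came from a sigmoidal non-linear regression fit.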

Row | EC50 [nM] | Compound
1 | 0.1 to 100 | CC1CN(c2ccc(Nc3ccc4c(c3)OC(C)C(=O)N4)cc2)CC(C)O1 (stereo not shown) [Compound 144, 7-((4-(2,6-dimethylmorpholino)phenyl)amino)-2-methyl-2H-benzo[b][1,4]oxazin-3(4H)-one]
2 | 0.1 to 100 | Cc1cc(Nc2ccc3c(c2)OCC(=O)N3)ccc1N1CC(C)OC(C)C1 (stereo not shown) [Compound 145, 7-((4-(2,6-dimethylmorpholino)-3-methylphenyl)amino)-2H-benzo[b][1,4]oxazin-3(4H)-one]

Same assay, conditions: Homo sapiens; HT-1080 cells treated with RSL3; 3-fold, 10-point dilution, 1.1 μM highest concentration; Table 2; read-out: EC50 (nM), ferroptosis inhibitory activity

Row | Compound | EC50 [nM]
3 | CN1C(=O)CCc2cc(Nc3ccc(N4CCC(C(F)(F)F)CC4)cc3)ccc21 [Compound 127, 1-methyl-6-((4-(4-(trifluoromethyl)piperidin-1-yl)phenyl)amino)-3,4-dihydroquinolin-2(1H)-one] | 0.1 to 100
4 | CN1C(=O)OCc2cc(Nc3ccc(N4CCC(C(F)(F)F)CC4)cc3)ccc21 [Compound 128, 1-methyl-6-((4-(4-(trifluoromethyl)piperidin-1-yl)phenyl)amino)-1,4-dihydro-2H-benzo[d][1,3]oxazin-2-one] | 0.1 to 100
5 | COC1(C(F)(F)F)CCN(c2ccc(Nc3ccc4c(c3)OCC(=O)N4C)c(C)c2)CC1 [Compound 129, 7-((4-(4-methoxy-4-(trifluoromethyl)piperidin-1-yl)-2-methylphenyl)amino)-4-methyl-2H-benzo[b][1,4]oxazin-3(4H)-one] | 0.1 to 100
6 | Cc1cc(N2CCC(O)(C(F)(F)F)CC2)ccc1Nc1ccc2c(c1)OCC(=O)N2C [Compound 130, 7-((4-(4-hydroxy-4-(trifluoromethyl)piperidin-1-yl)-2-methylphenyl)amino)-4-methyl-2H-benzo[b][1,4]oxazin-3(4H)-one] | 0.1 to 100
7 | CN(CC(F)(F)F)c1ccc(Nc2ccc3c(c2)OCC(=O)N3C)cc1 [Compound 134] | 0.1 to 100
8 | CN1C(=O)NCc2cc(Nc3ccc(N4CCC(C(F)(F)F)CC4)cc3)ccc21 [Compound 137, 1-methyl-6-((4-(4-(trifluoromethyl)piperidin-1-yl)phenyl)amino)-3,4-dihydroquinazolin-2(1H)-one] | 0.1 to 100
9 | CCC1CN(c2ccc(Nc3ccc4c(c3)OCC(=O)N4C)c(C)c2)CCO1 (stereo not shown) [Compound 147, 7-((4-(2-ethylmorpholino)-2-methylphenyl)amino)-4-methyl-2H-benzo[b][1,4]oxazin-3(4H)-one] | 0.1 to 100
10 | CC1CN(c2ccc(Nc3ccc4c(c3)OCC(=O)N4C)cc2)CCO1 (stereo not shown) [Compound 149, 4-methyl-7-((4-(2-methylmorpholino)phenyl)amino)-2H-benzo[b][1,4]oxazin-3(4H)-one] | 0.1 to 100
11 | Cc1cc(Nc2ccc3c(c2)OCC(=O)N3C)cc(C)c1N1CCC(C(F)(F)F)CC1 [Compound 155, 7-((3,5-dimethyl-4-(4-(trifluoromethyl)piperidin-1-yl)phenyl)amino)-4-methyl-2H-benzo[b][1,4]oxazin-3(4H)-one] | 0.1 to 100
12 | CN1C(=O)COc2cc(Nc3ccc(N4CCC(C(F)(F)F)CC4)cc3)c(F)cc21 [Compound 156, 6-fluoro-4-methyl-7-((4-(4-(trifluoromethyl)piperidin-1-yl)phenyl)amino)-2H-benzo[b][1,4]oxazin-3(4H)-one] | 0.1 to 100
13 | Cc1cc2c(cc1Nc1ccc(N3CCC(C(F)(F)F)CC3)cc1)OCC(=O)N2C [Compound 157] | 0.1 to 100
14 | O=C1CCc2cc(Nc3ccc(N4CCC(C(F)(F)F)CC4)cc3)ccc2N1 [Compound 158, 6-((4-(4-(trifluoromethyl)piperidin-1-yl)phenyl)amino)-3,4-dihydroquinolin-2(1H)-one] | 0.1 to 100
15 | CN1C(=O)COc2cc(Nc3cc(F)c(N4CCC(O)(C(F)(F)F)CC4)c(F)c3)ccc21 [Compound 160, 7-((3,5-difluoro-4-(4-hydroxy-4-(trifluoromethyl)piperidin-1-yl)phenyl)amino)-4-methyl-2H-benzo[b][1,4]oxazin-3(4H)-one] | 0.1 to 100
16 | COC1(C(F)(F)F)CCN(c2c(F)cc(Nc3ccc4c(c3)OCC(=O)N4C)cc2F)CC1 [Compound 161] | 0.1 to 100
17 | COC1(C(F)(F)F)CCN(c2ccc(Nc3ccc4c(c3)OCC(=O)N4)cc2)CC1 [Compound 162, 7-((4-(4-methoxy-4-(trifluoromethyl)piperidin-1-yl)phenyl)amino)-2H-benzo[b][1,4]oxazin-3(4H)-one] | 0.1 to 100
18 | CN1CCN(CC(=O)N2Cc3ccc(Nc4ccc(N5CCCCC5)cc4)cc3C2)CC1 [Compound 163, 2-(4-methylpiperazin-1-yl)-1-(5-((4-(piperidin-1-yl)phenyl)amino)isoindolin-2-yl)ethan-1-one] | 0.1 to 100
19 | CN1CCN(CC(=O)N2Cc3ccc(Nc4ccc(N5CCC(C(F)(F)F)CC5)c(F)c4)cc3C2)CC1 [Compound 164] | 0.1 to 100
20 | FC1(F)CCN(c2ccc(Nc3ccc4c(c3)CNC4)cc2)CC1 [Compound 165, N-(4-(4,4-difluoropiperidin-1-yl)phenyl)isoindolin-5-amine] | 0.1 to 100
21 | CC(=O)N1Cc2ccc(Nc3ccc(N4CCC(F)(F)CC4)cc3)cc2C1 [Compound 166, 1-(5-((4-(4,4-difluoropiperidin-1-yl)phenyl)amino)isoindolin-2-yl) ethan-1-one] | 0.1 to 100
22 | CCN1Cc2ccc(Nc3ccc(N4CCC(F)(F)CC4)cc3)cc2C1 [Compound 167, N-(4-(4,4-difluoropiperidin-1-yl)phenyl)-2-ethylisoindolin-5-amine] | 0.1 to 100
23 | CN1Cc2ccc(Nc3ccc(N4CCC(F)(F)CC4)cc3)cc2C1=O [Compound 168, 6-((4-(4,4-difluoropiperidin-1-yl)phenyl)amino)-2-methylisoindolin-1-one] | 0.1 to 100

Other lines, results leading:

Row | EC50 [nM] | Compound
24 | 0.1 to 100 | COc1cc(Nc2ccc3c(c2)OCC(=O)N3)cnc1N1CCC(C(F)(F)F)CC1 [Compound 131, 7-((5-methoxy-6-(4-(trifluoromethyl)piperidin-1-yl)pyridin-3-yl)amino)-2H-benzo[b][1,4]oxazin-3(4H)-one]
25 | 0.1 to 100 | Cc1cc(Nc2cc(F)c3c(c2)OCC(=O)N3C)ccc1N1CC(C)OC(C)C1 (stereo not shown) [Compound 132, 7-((4-(2,6-dimethylmorpholino)-3-methylphenyl)amino)-5-fluoro-4-methyl-2H-benzo[b][1,4]oxazin-3(4H)-one]
26 | 100 to 1000 | CC1CN(c2ccc(Nc3ccc4nnn(C)c4c3)cc2)CC(C)O1 (stereo not shown) [Compound 133, N-(4-(2,6-dimethylmorpholino)phenyl)-1-methyl-1H-benzo[d][1,2,3]triazol-6-amine]
27 | 0.1 to 100 | CC(C)(C)c1ccc(Nc2ccc3c(c2)OCC(=O)N3)cc1 [Compound 135, 7-((4-(tert-butyl)phenyl)amino)-2H-benzo[b][1,4]oxazin-3(4H)-one]
28 | 0.1 to 100 | O=C1COc2cc(Nc3cc(F)c(N4CCC(C(F)(F)F)CC4)c(F)c3)ccc2N1 [Compound 136, 7-((3,5-difluoro-4-(4-(trifluoromethyl)piperidin-1-yl)phenyl)amino)-2H-benzo[b][1,4]oxazin-3(4H)-one]
29 | 0.1 to 100 | Cc1cc(Nc2ccc3c(c2)OCC(=O)N3)ccc1N1CC(C)OC(C)C1 (stereo not shown) [Compound 138, 7-((4-(2,6-dimethylmorpholino)-3-methylphenyl)amino)-2H-benzo[b][1,4]oxazin-3(4H)-one]
30 | 0.1 to 100 | CC1CN(c2ccc(Nc3ccc4c(c3)OC(C)C(=O)N4)cc2)CC(C)O1 (stereo not shown) [Compound 139, 7-((4-(2,6-dimethylmorpholino)phenyl)amino)-2-methyl-2H-benzo[b][1,4]oxazin-3(4H)-one]
31 | 0.1 to 100 | CC1CN(c2ccc(Nc3ccc4c(c3)OCC(=O)N4)cc2)CC(C)O1 (stereo not shown) [Compound 140, 7-((4-(2,6-dimethylmorpholino)phenyl)amino)-2H-benzo[b][1,4]oxazin-3(4H)-one]
32 | 0.1 to 100 | Cc1cc(N2CC(C)OC(C)C2)ccc1Nc1cc(F)c2c(c1)OCC(=O)N2C (stereo not shown) [Compound 141, ((4-(2,6-dimethylmorpholino)-2-methylphenyl)amino)-5-fluoro-4-methyl-2H-benzo[b][1,4]oxazin-3(4H)-one]
33 | 0.1 to 100 | Cc1cc(Nc2ccc3c(c2)OCC(=O)N3C)cnc1N1CCC(C(F)(F)F)CC1 [Compound 142, 4-methyl-7-((5-methyl-6-(4-(trifluoromethyl)piperidin-1-yl)pyridin-3-yl)amino)-2H-benzo[b][1,4]oxazin-3(4H)-one]
34 | 0.1 to 100 | Cc1cc(Nc2ccc3c(c2)OCC(=O)N3C)cnc1N1CC(C)OC(C)C1 (stereo not shown) [Compound 143, 7-((6-(2,6-dimethylmorpholino)-5-methylpyridin-3-yl)amino)-4-methyl-2H-benzo[b][1,4]oxazin-3(4H)-one]
35 | 0.1 to 100 | Cc1cc(Nc2ccc3c(c2)OCC(=O)N3)ccc1N1CC2CCC(C1)O2 [Compound 146, 7-((4-(8-oxa-3-azabicyclo[3.2.1]octan-3-yl)-3-methylphenyl)amino)-2H-benzo[b][1,4]oxazin-3(4H)-one]
36 | 0.1 to 100 | CC1CN(c2ccc(Nc3ccc4c(c3)OCC(=O)N4)cc2)CCO1 (stereo not shown) [Compound 148, 7-((4-(2-methylmorpholino)phenyl)amino)-2H-benzo[b][1,4]oxazin-3(4H)-one]
37 | 0.1 to 100 | Cc1cc(Nc2ccc3c(c2)OCC(=O)N3)cnc1N1CCC(C(F)(F)F)CC1 [Compound 150, 7-((5-methyl-6-(4-(trifluoromethyl)piperidin-1-yl)pyridin-3-yl)amino)-2H-benzo[b][1,4]oxazin-3(4H)-one]
38 | 0.1 to 100 | Cc1cc(Nc2ccc3c(c2)OCC(=O)N3)cnc1N1C[C@@H](C)O[C@@H](C)C1 [Compound 151, 7-((6-(2,6-dimethylmorpholino)-5-methylpyridin-3-yl)amino)-2H-benzo[b][1,4]oxazin-3(4H)-one]
39 | 0.1 to 100 | CCC1Oc2cc(Nc3ccc(N4CC(C)OC(C)C4)cc3)ccc2NC1=O (stereo not shown) [Compound 154, 7-((4-(2,6-dimethylmorpholino)phenyl)amino)-2-ethyl-2H-benzo[b][1,4]oxazin-3(4H)-one]
40 | 0.1 to 100 | CC1CN(c2c(F)cc(Nc3ccc4c(c3)OCC(=O)N4)cc2F)CC(C)O1 (stereo not shown) [Compound 159, 7-((4-(2,6-dimethylmorpholino)-3,5-difluorophenyl)amino)-2H-benzo[b][1,4]oxazin-3(4H)-one]
